In PMC6197257 (Scientific Reports, 2018):

What was measured:
[1] = pharmacokinetic profile of 3MGA in EHBRs orally treated with GA (50 mg/kg); format: in vivo; details: Eisai Hyperbilirubinemia rats (EHBR), rat, plasma; female EHBRs, GA 50 mg/kg oral; read-out: time of maximum plasma concentration
Procedure: Female EHBRs (8 or 9-week-old) were orally treated with GA (50 mg/kg) suspended in 0.5% CMC, and kept in metabolic cages. Blood samples (approximately 0.3 ml) were collected from the tail 1, 2, 3, 6, 12, 24, and 48 h after the oral treatment. Urine samples were collected 6, 12, 24, and 48 h after the oral treatment. The concentrations of 3MGA in the samples were measured by both ELISA and LC-MS/MS described in our previous paper. Ten µl aliquots of plasma or urine from rats treated with GA, or standard solution of 3MGA in plasma or urine collected from normal rats were mixed with 20 µl of 1:1,000 diluted subtilisin, and incubated at 37 °C for 30 min. After adding 70 µl of EtOH containing 10 µg/ml of PHB used as internal standard, the solution was applied into the system. The mass spectrometer used an electrospray ionization source in the positive ion mode with multiple reaction monitoring (ESI(+)MS-MRM). The analytical column was an Inertsil ODS-4, 2 mm i.d. ×75 mm, 3 µm (GL Sciences Inc., Tokyo, Japan). […] The transitions (precursor to daughter) monitored and retention times were 647.4 to 453.5 m/z for 3MGA (4.4 min) and 195.2 to 139.0 m/z for PHB (4.8 min). […]

OAT3 = molecular target: T1, OAT3 (Homo sapiens, UniProt Q8TCC7); details: cited from earlier work
T1 construct: expressed in transfected cells
T1 sequence (Q8TCC7 1-542): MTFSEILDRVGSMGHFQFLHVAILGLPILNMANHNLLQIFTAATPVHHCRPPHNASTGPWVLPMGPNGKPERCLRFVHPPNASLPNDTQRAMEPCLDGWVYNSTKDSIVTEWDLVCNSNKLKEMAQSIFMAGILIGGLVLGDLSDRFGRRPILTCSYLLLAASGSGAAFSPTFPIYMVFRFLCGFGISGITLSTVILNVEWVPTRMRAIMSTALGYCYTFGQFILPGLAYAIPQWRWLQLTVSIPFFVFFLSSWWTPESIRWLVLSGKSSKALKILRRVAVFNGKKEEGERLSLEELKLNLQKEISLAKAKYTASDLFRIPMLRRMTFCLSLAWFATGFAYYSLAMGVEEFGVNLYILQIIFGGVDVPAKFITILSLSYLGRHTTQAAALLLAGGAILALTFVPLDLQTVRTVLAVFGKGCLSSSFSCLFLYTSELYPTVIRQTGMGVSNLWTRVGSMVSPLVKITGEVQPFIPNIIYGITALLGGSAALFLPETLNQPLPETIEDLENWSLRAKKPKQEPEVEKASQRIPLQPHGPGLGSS

rat 11β-HSD2 = molecular target: T2, rat 11β-HSD2 (Rattus norvegicus, UniProt P50233); details: previous study; cited from earlier work
T2 construct: kidney microsome fractions were obtained from male Wistar rats (7-week-old); from tissue; host or cells: rat kidney microsome fraction (male Wistar rats)
T2 sequence (P50233 1-400): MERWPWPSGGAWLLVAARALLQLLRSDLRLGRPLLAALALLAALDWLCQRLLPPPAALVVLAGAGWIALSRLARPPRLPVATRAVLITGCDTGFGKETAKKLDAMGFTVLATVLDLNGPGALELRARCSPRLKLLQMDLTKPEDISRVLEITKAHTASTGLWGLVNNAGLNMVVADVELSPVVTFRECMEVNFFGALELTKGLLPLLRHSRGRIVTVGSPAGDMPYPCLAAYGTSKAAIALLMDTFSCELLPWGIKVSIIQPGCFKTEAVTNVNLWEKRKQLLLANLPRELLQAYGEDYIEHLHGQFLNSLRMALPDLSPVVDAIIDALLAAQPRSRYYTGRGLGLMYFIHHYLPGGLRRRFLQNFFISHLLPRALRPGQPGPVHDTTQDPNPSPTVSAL

OAT1 = molecular target: T3, OAT1 (Homo sapiens, UniProt Q4U2R8); details: cited from earlier work
T3 construct: expressed in transfected cells
T3 sequence (Q4U2R8 1-563): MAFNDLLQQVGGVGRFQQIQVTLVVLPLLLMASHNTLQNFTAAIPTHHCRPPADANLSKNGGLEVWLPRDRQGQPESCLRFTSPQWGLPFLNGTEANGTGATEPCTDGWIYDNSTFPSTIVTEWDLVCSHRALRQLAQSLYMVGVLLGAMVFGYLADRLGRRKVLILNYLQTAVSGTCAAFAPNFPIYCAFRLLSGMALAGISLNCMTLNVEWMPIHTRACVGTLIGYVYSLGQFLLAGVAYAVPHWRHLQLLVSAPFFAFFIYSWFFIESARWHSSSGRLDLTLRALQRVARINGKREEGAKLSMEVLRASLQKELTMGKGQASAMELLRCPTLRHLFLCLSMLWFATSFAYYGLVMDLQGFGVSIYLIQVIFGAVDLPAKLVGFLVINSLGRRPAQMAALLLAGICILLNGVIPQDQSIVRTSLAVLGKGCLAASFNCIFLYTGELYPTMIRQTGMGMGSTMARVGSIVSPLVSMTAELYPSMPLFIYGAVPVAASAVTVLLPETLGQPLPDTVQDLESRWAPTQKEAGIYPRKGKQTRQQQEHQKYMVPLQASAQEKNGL

anti-3MGA MAb = assay: competitive ELISA cross-reactivity of anti-3MGA MAb; format: binding, mouse; details: CR = IC50 for 3MGA / IC50 for compound x 100, 3MGA calibrated as 100%
Procedure: To activate the hapten 3MGA for the preparation of anti-3MGA MAb, the 3MGA-KLH conjugate was synthesized by using a model based on the carbodiimide method with both EDC and NHS reagents. 3MGA-HSA was also prepared using the same method, and was used for ELISA. We also evaluated the hapten number of the 3MGA-HSA conjugate by MALDI-TOF MS analysis. […] The MAb was developed by using the same methods described in our previous study. Hybridomas secreting antibodies recognizing 3MGA were selected by ELISA and then subcloned 4 times by the limited dilution method. […] The heavy chain of the obtained MAb was classified using a Calbiochem mouse hybridoma subisotyping kit (EMD Biosciences, Darmstadt, Germany), whereas the light chain was estimated using an IsoQuick^TM mouse monoclonal isotyping strip (Sigma) according to the manufacturer’s instructions.
3MGA-HSA (1 µg/ml in 50 mM carbonate buffer, pH 9.6) was added into a 96-well plate (Nagel Nunc, Penfield, NY, USA) (100 µl/well), and incubated at 37 °C for 1 h. After the removal of 3MGA-HSA, the wells were washed with 200 µl/well PBS containing 0.05% Tween 20 (T-PBS) for 3 times. The wells were incubated with 300 µl/well of 5% skim milk (Morinaga-milk, Tokyo, Japan) at 4 °C overnight. […] After the wells were washed with T-PBS 3 times, HRP-labeled goat anti-mouse IgG (Fc specific) antibody (1:1,000 dilution with T-PBS) was added into the wells (100 µl/well), and the plate was incubated at 37 °C for 1 h. Next, the wells were washed with T-PBS 3 times, the substrate solution (0.006% H2O2 in 200 mM citrate buffer, pH 4.0/H2O/0.6 mg/ml ABTS 10:9:1) was added into the wells (100 µl/well), and incubated at room temperature for 15 min.

Tmax [1]: 6 h
SMILES: CC1(C)[C@@H](O[C@@H]2O[C@H](C(=O)O)[C@@H](O)[C@H](O)[C@H]2O)CC[C@]2(C)[C@H]3C(=O)C=C4[C@@H]5C[C@@](C)(C(=O)O)CC[C@]5(C)CC[C@@]4(C)[C@]3(C)CC[C@@H]12 [Compound 3MGA, 3-monoglucuronyl glycyrrhetinic acid]
substrate of OAT3 (OAT3): is a substrate | IC50 (rat 11β-HSD2): 0.26 µM | substrate of OAT1 (OAT1): is a substrate | cross-reactivity of anti-3MGA MAb (anti-3MGA MAb): 100%
